Reference: paper PMC7377239, “Cardiovascular Effects of Polychlorinated Biphenyls and Their Major Metabolites” (Environmental Health Perspectives, 2020)
Where two headings read alike, the source gives them in different places.

Assays:
[1] = system: iCell endothelial cells (human iPSC-derived ECs); test: Tube formation (tubulogenesis) assay in iCell endothelial cells, 18 h; assay type: cell-based; conditions: Homo sapiens, Endothelial cell, endothelial cells (endo), 18 hr
Protocol: The culture conditions of iCell®-endothelial cells were as reported elsewhere ([Iwata et al. 2017]). Briefly, T75 flasks were coated with a fibronectin solution ( 3 μg/cm^2 ) followed by incubation for 1–2 h. Cells were thawed for 3 min in a 37°C water bath. Thawed cells were added to maintenance medium made of VascuLife VEGF Medium Complete Kit, excluding the supplied FBS, and iCell® Endothelial Cells Medium Supplement. The final formulation of the maintenance medium is detailed in ([Iwata et al. 2017]). The aliquoted fibronectin solution was aspirated from the T75 flasks, and cells were seeded at 1.0×10^4 cells/cm^2 . Cells were maintained at 37°C and 5% CO2 with media changes occurring every 2 d and passaged every 3–4 d using TrypLE™ Express. All experiments were conducted on cells between passages 1 and 5.
Tube formation assays were performed on Geltrex™ LDEV-free reduced growth factor basement membrane using both iCell®-endothelial cells and HUVECs in 384-well format exactly as detailed in Iwata et al. ([2017]). Negative controls included media-only and vehicle control (i.e., 0.5% vol/vol DMSO in cell culture media) wells. Positive assay controls were consistent with previously published reports ([Iwata et al. 2017]) and included TAB ( 50μM ) as a cytotoxic control, and nocodazole ( 0.01–1μM ), suramin ( 0.5–50μM ), histamine ( 0.1–100μM ), and chloroquine ( 1–500μM ) as chemicals associated with specific effects on ECs. Each test chemical was screened in triplicate for each concentration. Briefly, for iCell®-endothelial cells, starvation media consisted of VascuLife® basal medium with 4 mM L-glutamine LifeFactor and 0.1% iCell®-endothelial cells medium supplement. To counter dilution effects, a 2× concentration of the HUVEC maintenance medium supplemented with additional VEGF was created (EGM™-2 BulletKits™ at 2× concentration; also the VEGF component was replaced with 12.5 ng/mL VEGF). Geltrex™ LDEV-free reduced growth factor basement membrane was thawed overnight and dispensed into 384-well plates ( 10μL/well ) with tapping and rotating to evenly coat. The plates were incubated for 1 h in a cell culture incubator at 37°C and 5% CO2 . A 2× PCB plate (containing all of the PCBs and metabolites in dose–response) was prepared in basal media and added, 25μL per well, to the Geltrex™ coated plates. On separate plates, cells were seeded 7,500 (iPSC- ECs) or 3,500 (HUVEC) cells/well. Cells were exposed to chemicals overnight at 37°C and 5% CO2 and stained with 3× concentration of calcein AM ( 25μL /well, 6μmol/L ) for 15 min before imaging. Images were captured at 4× magnification with the FITC filter (calcein AM). Images were analyzed with the angiogenesis module software within MetaXpress™ (Molecular Devices).
(§1) Phenotypic responses were quantitatively assessed using concentration–response modeling as detailed elsewhere ([Sirenko et al. 2017]). Briefly, phenotypic readouts were normalized to vehicle controls and fit to a four-parameter logistic model in R studio software (version 3.1.1; R Development Core Team). Following EPA guidance on dose–response modeling, a cutoff of one standard deviation across means of vehicle control (i.e., 0.5% vol/vol DMSO in cell culture media) wells was applied to determine the point-of-departure (POD) values ([U.S. EPA 2012]). In the absence of a concentration–response, the highest tested concentration (i.e., 100μM ) was assigned as “no observable adverse effect level.” The concentration–response assessment R script, as well as templates for vehicle and concentration–response data, are available as a supplement to Sirenko et al. ([2017]). The ability of physicochemical properties to predict differences in PODs were evaluated by multiregression and mixed-effects modeling using R.

HUVECs = test: High-content imaging cytotoxicity in HUVECs, 24 h; assay type: cell-based, human; conditions: Homo sapiens, HUVEC, 24 h, HUVEC, 24 hr
Protocol: Similar to the cultivation of iCell®-endothelial cells, HUVEC maintenance and experimentation are detailed elsewhere ([Iwata et al. 2017]). Briefly, HUVECs were thawed, seeded, and grown in T75 tissue culture flasks in Medium 199 with EGM™-2 BulletKits™. HUVECs were incubated at regular cell culture conditions, 37°C and 5% CO2 , and passaged every 2–3 d using TrypLE™ Express. To ensure adequate endothelial function, experiments were performed with cells between passages 1 and 5.
Cytotoxicity was assessed in parallel experiments. For iCell®-endothelial cells, 384-well plates were coated with a 30μg/mL fibronectin solution ( 10μL/well ) and incubated for 2 h at RT. iCell®-endothelial cells were dissociated with TrypLE™ Express and prepared into a solution to achieve 750 cells per well and 50μL of total volume. The fibronectin solution was removed from the 384-well plate, and cells were plated. For HUVECs, similar dissociation and the same cell density were used for plating with the exclusion of the fibronectin solution. Cells were incubated at 37°C and 5% CO2 until a monolayer was formed, typically 3–5 d. 2×PCB plates were created with the requisite maintenance medium. Before treatment, the medium in the wells was exchanged to 25μL/well of fresh maintenance medium. 2×PCB chemical solutions ( […] ) were added. After 24 h incubation at 37°C and 5% CO2 , cells were stained with Hoechst 33342, MitoTracker™ Orange, and calcein AM for 20 min before replacing the staining media with FluoroBright DMEM. Cell culture plates were imaged using the ImageXpress® Micro Confocal high-content imaging system (Molecular Devices). Images were acquired at 10× magnification with DAPI, TRITC, or FITC filter (Hoechst 33342, MitoTracker™, or calcein AM, respectively). The multiwavelength cell scoring applications module in MetaXpress™ (Molecular Devices) was used to analyze the images.
as §1

Clc1ccc(Cl)c(-c2c(Cl)ccc(Cl)c2Cl)c1 [PCB 95, 2,2′,3,5′,6-pentachlorobiphenyl]
minimal effective concentration ([1]; tube formation mtl, read-out: POD endo.mtl.18hr): 48.6 µM
minimal effective concentration ([1]; tube formation tlps, read-out: POD endo.tlps.18hr): 53.9 µM
minimal effective concentration ([1]; tube formation tta, read-out: POD endo.tta.18hr): 48.7 µM
minimal effective concentration ([1]; tube formation ttl, read-out: POD endo.ttl.18hr): 55.7 µM
minimal effective concentration (HUVECs; cyto, read-out: POD huvec.cyto.24hr): 0.01 µM
minimal effective concentration (HUVECs; mito, read-out: POD huvec.mito.24hr): 0.022 µM
minimal effective concentration (HUVECs; mitoint, read-out: POD huvec.mitoint.24hr): 7.41 µM
minimal effective concentration (HUVECs; nma, read-out: POD huvec.nma.24hr): 1.93 µM
minimal effective concentration (HUVECs; tc, read-out: POD huvec.tc.24hr): 0.01 µM
